Measurements: article PMC8476755 (Frontiers in Chemistry, 2021)
Positions count from the first letter of the chain named. Where two headings read alike, the source gives them in different places.

How the values were obtained:
Assay in all cases: [3H]GABA uptake assay, transient expression in tsA201 cells
Type in all cases: cell-based
BGT1 wt = biological target: T1, BGT1 wt (Homo sapiens, UniProt P48065); conditions: for IC50: BGT1 wt, tsA201 cells; for Selectivity ratio for BGT1 over GAT3: [3H]GABA uptake IC50 GAT3 wt / BGT1 wt
T1 construct: expressed in transfected cells; host or cells: tsA201 (transformed HEK293), transient
T1 sequence (P48065 1-614): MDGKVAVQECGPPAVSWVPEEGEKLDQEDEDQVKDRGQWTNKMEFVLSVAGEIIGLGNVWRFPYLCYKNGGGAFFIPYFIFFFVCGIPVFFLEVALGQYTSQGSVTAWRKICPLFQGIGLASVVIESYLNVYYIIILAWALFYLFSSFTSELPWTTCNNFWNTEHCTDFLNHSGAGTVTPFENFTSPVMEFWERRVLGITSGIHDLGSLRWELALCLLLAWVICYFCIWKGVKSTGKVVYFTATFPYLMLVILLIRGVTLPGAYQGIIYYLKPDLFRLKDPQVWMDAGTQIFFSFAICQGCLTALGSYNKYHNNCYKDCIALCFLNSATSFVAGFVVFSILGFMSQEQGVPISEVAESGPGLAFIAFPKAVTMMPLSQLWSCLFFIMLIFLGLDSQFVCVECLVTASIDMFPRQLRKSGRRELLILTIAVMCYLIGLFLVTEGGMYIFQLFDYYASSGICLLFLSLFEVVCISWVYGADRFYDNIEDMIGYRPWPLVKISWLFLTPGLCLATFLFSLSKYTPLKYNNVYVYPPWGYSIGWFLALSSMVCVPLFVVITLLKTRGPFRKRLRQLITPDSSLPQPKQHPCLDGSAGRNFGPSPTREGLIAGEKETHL
From the text: (§1) FIGURE 6 (A) Pocket alignment of the orthosteric site of the four GAT subtypes colored according to the default ClustalX color scheme ([Larkin et al., 2007]). The pocket was defined as all corresponding GAT residues (15 in total) that are within a distance of 4.5 Å of the co-crystallized ligand leucine in the homologous LeuT crystal structure (PDB ID 2A65) ([Yamashita et al., 2005]) according to the alignment by Kickinger et al. ([Kickinger et al., 2019]). The mutated residues in BGT1 and the corresponding residues in GAT1-3 are indicated by a red box. The numbering of all residues within the orthosteric pocket can be found in the Supplementary Table S1.
(§2) The tsA201 cell line (a transformed HEK293 cell line), the Flp-In CHO cell lines stably expressing human (h) GATs and the HEK293 cell line stably expressing human α1β2γ2 GABAA receptors have been described previously and were cultured accordingly ([Al-Khawaja et al., 2014]; [Falk-Petersen et al., 2020]). The tsA201 cell line used for transient expression of hGATs was transfected with DNA constructs (8 μg per 10 cm plate) using 40 μL PolyFect transfection reagent according to the manufacturer’s protocol (Qiagen).
(§3) Briefly, cells were seeded in white 96-well plates (White Opaque Tissue Culture (TC) plated 96-well Microplate) pre-coated with PDL. Medium was removed on the following day and cells washed with 100 µL/well assay buffer (HBSS supplemented with 20 mM HEPES, 1 mM CaCl2 and 1 mM MgCl2, pH 7.4). […] The cells were washed 3 times with 100 µL/well ice-cold assay buffer, 150 µL/well MicroScint™20 was subsequently added before the plate was shaken for at least 1 h. The plate was counted in a Packard TopCounter microplate scintillation counter (PerkinElmer) for 3 min per well. […] Data presented is the pooled data of at least three independent experiments with three technical replicates if not stated otherwise in figure legends. Concentration–response curves were fitted by non-linear regression to the sigmoidal concentration-response model with GraphPad Prism (version 9.0.0, GraphPad Software, San Diego, CA, United States) as described ([Lie et al., 2020]).

GAT3 wt = biological target: T2, GAT3 wt (Homo sapiens, UniProt P48066)
T2 construct: expressed in transfected cells; host or cells: tsA201 (transformed HEK293), transient
T2 sequence (P48066 1-632): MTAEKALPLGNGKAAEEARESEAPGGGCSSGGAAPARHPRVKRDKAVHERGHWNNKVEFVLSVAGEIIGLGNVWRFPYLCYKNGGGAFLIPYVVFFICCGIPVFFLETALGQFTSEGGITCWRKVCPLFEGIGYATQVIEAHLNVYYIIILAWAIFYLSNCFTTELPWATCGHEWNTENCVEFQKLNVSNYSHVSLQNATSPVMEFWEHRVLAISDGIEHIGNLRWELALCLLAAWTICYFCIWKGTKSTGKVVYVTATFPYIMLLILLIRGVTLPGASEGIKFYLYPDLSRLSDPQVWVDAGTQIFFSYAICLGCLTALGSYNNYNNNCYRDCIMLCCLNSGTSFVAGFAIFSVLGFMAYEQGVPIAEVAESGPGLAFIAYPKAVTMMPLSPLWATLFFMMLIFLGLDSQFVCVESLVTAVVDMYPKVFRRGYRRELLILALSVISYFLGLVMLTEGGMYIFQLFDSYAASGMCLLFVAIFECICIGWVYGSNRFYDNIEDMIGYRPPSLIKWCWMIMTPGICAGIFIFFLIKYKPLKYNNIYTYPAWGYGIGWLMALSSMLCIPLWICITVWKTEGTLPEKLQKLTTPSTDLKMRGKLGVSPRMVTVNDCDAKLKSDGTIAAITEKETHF
From the text: as §1, §2, §3

BGT1 Q299L = biological target: T3, BGT1 Q299L (Homo sapiens, UniProt P48065, Q299L); conditions: for IC50: BGT1 Q299L, tsA201 cells
T3 construct: expressed in transfected cells; host or cells: tsA201 (transformed HEK293), transient
T3 sequence (P48065 1-614 Q299L): T1 sequence (P48065 1-614) with Q299L
From the text: The residue Q299 in human BGT1 corresponds to leucine in all other GATs (human, rat, mouse), while E52 corresponds to tyrosine in GAT1 (human, rat, mouse) but is conserved among GAT2, GAT3 and BGT1 (human, rat, mouse) (Figure 6A) ([Kickinger et al., 2019]).
as §1, §2, §3

[1] = read-out: pIC50 ± S.E.M. (converted)

SMILES	IC50 (BGT1 wt; 30 nM [3H]GABA, read-out: IC50)	IC50 (BGT1 wt; [1])	Selectivity ratio for BGT1 over GAT3 (BGT1 wt)	IC50 (GAT3 wt)	Decrease in inhibitory activity compared to wildtype (BGT1 Q299L; BGT1 Q299L vs BGT1 wt)	IC50 (BGT1 Q299L; read-out: IC50)	IC50 (BGT1 Q299L; [1])
N[C@@]12CC[C@H](C(=O)O)[C@@H]1C2 [bicyclo-GABA, (1S,2S,5R)-5-aminobicyclo[3.1.0]hexane-2-carboxylic acid]	1.5 µM	1.26 µM	407	610 µM	32 times	48 µM	
CN[C@@]12CC[C@H](C(=O)O)[C@@H]1C2 [compound 2]	9.8 µM		22	211 µM		59 µM	50.1 µM
